Assay results reported in ChEMBL document CHEMBL1201862, “PubChem BioAssay data set” (2004).
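Compound exposure: 48 hours, 5 concentrations, 96-well plates. GI50 is the concentration that inhibits growth by half.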 Calls of active or inactive are those of the source. No stated cut-off is given here; in the data, active = GI50 up to about 1.1 µM and inactive = higher.

Key:
Test in all cases: DTP human tumour cell line panel, 48 h
KM12 = tested on: KM12
Malme-3M = tested on: Malme-3M
CCRF-CEM = tested on: CCRF-CEM
SF-268 = tested on: SF-268
SF-539 = tested on: SF-539
ACHN = tested on: ACHN
SK-MEL-2 = tested on: SK-MEL-2
OVCAR-3 = tested on: OVCAR-3
HT-29 = tested on: HT-29
SF-295 = tested on: SF-295
OVCAR-5 = tested on: OVCAR-5
HCT-116 = tested on: HCT-116
A549 = tested on: A549
IGROV-1 = tested on: IGROV-1
NCI-H522 = tested on: NCI-H522
UACC-257 = tested on: UACC-257
EKVX = tested on: EKVX
LOX IMVI = tested on: LOX IMVI
SN12C = tested on: SN12C
HCC 2998 = tested on: HCC 2998

| SMILES | GI50 (KM12) | GI50 (Malme-3M) | GI50 (CCRF-CEM) | GI50 (SF-268) | GI50 (SF-539) | GI50 (ACHN) | GI50 (SK-MEL-2) | GI50 (OVCAR-3) | GI50 (HT-29) | GI50 (SF-295) | GI50 (OVCAR-5) | GI50 (HCT-116) | GI50 (A549) | GI50 (IGROV-1) | GI50 (NCI-H522) | GI50 (UACC-257) | GI50 (EKVX) | GI50 (LOX IMVI) | GI50 (SN12C) | GI50 (HCC 2998) |
| --- | --- | --- | --- | --- | --- | --- | --- | --- | --- | --- | --- | --- | --- | --- | --- | --- | --- | --- | --- | --- |
| C=CCN1C(N)=C(C(N)=O)S/C1=C1/SC(=S)N(c2ccc(C)cc2)C1=O | > 100 µM (inactive) | 36.8 µM (inactive) | > 100 µM (inactive) | > 100 µM (inactive) | > 100 µM (inactive) | > 100 µM (inactive) | > 100 µM (inactive) | > 100 µM (inactive) | > 100 µM (inactive) | 49.8 µM (inactive) | 5.66 µM (inactive) | > 100 µM (inactive) | > 100 µM (inactive) | > 100 µM (inactive) | > 100 µM (inactive) | > 100 µM (inactive) | – | – | – | – |
| O=C1C=C[C@@H](COC2OC(CO)C(O)C(O)C2O)O1 (stereo partly specified) | 4.95 µM (inactive) | – | 1.36 µM (inactive) | 25.8 µM (inactive) | 5.6 µM (inactive) | – | 13.6 µM (inactive) | 16.8 µM (inactive) | 5.86 µM (inactive) | 18.1 µM (inactive) | 22 µM (inactive) | > 100 µM (inactive) | 22 µM (inactive) | 27.6 µM (inactive) | 5.14 µM (inactive) | 14.3 µM (inactive) | 20.4 µM (inactive) | 3.88 µM (inactive) | 5.93 µM (inactive) | 40 µM (inactive) |
| COc1cc(Nc2c3ccccc3nc3ccccc23)ccc1NS(C)(=O)=O | 6.97 µM (inactive) | 7.66 µM (inactive) | 28.8 µM (inactive) | 4.39 µM (inactive) | 4.41 µM (inactive) | 4.11 µM (inactive) | 7.53 µM (inactive) | 6.53 µM (inactive) | 3.34 µM (inactive) | 3.84 µM (inactive) | 11 µM (inactive) | 3.27 µM (inactive) | 2.42 µM (inactive) | 10.4 µM (inactive) | 3.42 µM (inactive) | 11.9 µM (inactive) | 10 µM (inactive) | 2.67 µM (inactive) | 2.58 µM (inactive) | 14.2 µM (inactive) |
| CCCSc1ccc2[nH]c(N3C(=O)/C(=C/c4cc(OC)c(OC)c(OC)c4)N=C3c3ccccc3)cc2c1 | 1.65 µM (inactive) | 13.9 µM (inactive) | 7.94 µM (inactive) | 11 µM (inactive) | 1.72 µM (inactive) | 23 µM (inactive) | 18.4 µM (inactive) | 9.12 µM (inactive) | 7.82 µM (inactive) | 1.25 µM (inactive) | 17.7 µM (inactive) | 16.5 µM (inactive) | 0.553 µM (active) | 9.38 µM (inactive) | 8.97 µM (inactive) | 13.8 µM (inactive) | 5.74 µM (inactive) | 12.2 µM (inactive) | 16.4 µM (inactive) | 13.2 µM (inactive) |
| COc1ccc(CNc2nc3cc(C(F)(F)F)ccc3nc2C)cc1OC | 23.7 µM (inactive) | 20.1 µM (inactive) | 31.9 µM (inactive) | 33.3 µM (inactive) | 29.2 µM (inactive) | – | 19.5 µM (inactive) | 32.5 µM (inactive) | 39.9 µM (inactive) | 34.4 µM (inactive) | 37.5 µM (inactive) | 26.2 µM (inactive) | 32.1 µM (inactive) | 31 µM (inactive) | 21.9 µM (inactive) | 19 µM (inactive) | 20.2 µM (inactive) | 24.9 µM (inactive) | 30.5 µM (inactive) | 17.9 µM (inactive) |
| Cc1c(C#N)c2nnn(C)c(=O)n2c1-c1ccccc1 | 57.1 µM (inactive) | – | 64.1 µM (inactive) | > 100 µM (inactive) | > 100 µM (inactive) | > 100 µM (inactive) | > 100 µM (inactive) | > 100 µM (inactive) | – | 51.6 µM (inactive) | > 100 µM (inactive) | – | 86.3 µM (inactive) | – | – | 34.4 µM (inactive) | 56 µM (inactive) | – | > 100 µM (inactive) | > 100 µM (inactive) |
| Cn1cc(C(=O)/C(Cl)=C(\Cl)C(=O)O)c2ccccc21 | > 100 µM (inactive) | > 100 µM (inactive) | > 100 µM (inactive) | – | > 100 µM (inactive) | > 100 µM (inactive) | > 100 µM (inactive) | > 100 µM (inactive) | > 100 µM (inactive) | > 100 µM (inactive) | > 100 µM (inactive) | > 100 µM (inactive) | > 100 µM (inactive) | > 100 µM (inactive) | – | > 100 µM (inactive) | > 100 µM (inactive) | – | – | > 100 µM (inactive) |
| CC(C)OP(=O)(OC(C)C)/C(=N/Nc1ccc([N+](=O)[O-])cc1)NCCO | > 100 µM (inactive) | > 100 µM (inactive) | > 100 µM (inactive) | > 100 µM (inactive) | > 100 µM (inactive) | 54.1 µM (inactive) | > 100 µM (inactive) | > 100 µM (inactive) | – | – | > 100 µM (inactive) | > 100 µM (inactive) | 74.8 µM (inactive) | – | > 100 µM (inactive) | > 100 µM (inactive) | > 100 µM (inactive) | 56.1 µM (inactive) | > 100 µM (inactive) | > 100 µM (inactive) |
| COc1cccc(N/C(C)=C2/CCOC2=O)c1 | > 10 µM (inactive) | > 10 µM (inactive) | > 10 µM (inactive) | > 10 µM (inactive) | > 10 µM (inactive) | 5.33 µM (inactive) | > 10 µM (inactive) | > 10 µM (inactive) | > 10 µM (inactive) | > 10 µM (inactive) | > 10 µM (inactive) | > 10 µM (inactive) | > 10 µM (inactive) | > 10 µM (inactive) | > 10 µM (inactive) | – | > 10 µM (inactive) | > 10 µM (inactive) | > 10 µM (inactive) | > 10 µM (inactive) |
| O=C(CCl)NC(Cc1ccc(F)cc1)C(=O)O (stereo unspecified) | > 100 µM (inactive) | 69.3 µM (inactive) | > 100 µM (inactive) | > 100 µM (inactive) | > 100 µM (inactive) | – | > 100 µM (inactive) | > 100 µM (inactive) | > 100 µM (inactive) | > 100 µM (inactive) | > 100 µM (inactive) | > 100 µM (inactive) | > 100 µM (inactive) | > 100 µM (inactive) | > 100 µM (inactive) | > 100 µM (inactive) | > 46 µM (inactive) | > 100 µM (inactive) | > 100 µM (inactive) | > 92.7 µM (inactive) |
| Cc1sc(Cc2ccccc2)nc1-c1ccc(N)cc1 | 17 µM (inactive) | 31.3 µM (inactive) | 15.9 µM (inactive) | 25 µM (inactive) | – | 31.2 µM (inactive) | 17.3 µM (inactive) | 20.7 µM (inactive) | 22.6 µM (inactive) | 37.4 µM (inactive) | 32.5 µM (inactive) | 20.2 µM (inactive) | 30.6 µM (inactive) | 27.9 µM (inactive) | 16 µM (inactive) | 30 µM (inactive) | 31.4 µM (inactive) | 15.2 µM (inactive) | 21.1 µM (inactive) | 19.1 µM (inactive) |
| COc1cc(Nc2nc3cc(C(F)(F)F)ccc3n3cccc23)cc(OC)c1OC | – | > 100 µM (inactive) | 4.54 µM (inactive) | > 100 µM (inactive) | > 100 µM (inactive) | > 100 µM (inactive) | > 100 µM (inactive) | > 100 µM (inactive) | – | 5.02 µM (inactive) | > 100 µM (inactive) | > 100 µM (inactive) | > 100 µM (inactive) | > 100 µM (inactive) | > 100 µM (inactive) | > 100 µM (inactive) | > 100 µM (inactive) | – | 32.4 µM (inactive) | > 100 µM (inactive) |
| Cc1c2ccnc(C(F)(F)F)c2cc2c1[nH]c1ccccc12 | 121 µM (inactive) | 98.2 µM (inactive) | > 125 µM (inactive) | 101 µM (inactive) | 99.1 µM (inactive) | – | > 125 µM (inactive) | 114 µM (inactive) | > 125 µM (inactive) | 23.2 µM (inactive) | > 125 µM (inactive) | > 125 µM (inactive) | > 125 µM (inactive) | > 125 µM (inactive) | > 125 µM (inactive) | > 125 µM (inactive) | > 125 µM (inactive) | > 125 µM (inactive) | > 125 µM (inactive) | > 125 µM (inactive) |
| O=S1(=O)CS(=O)(=O)OCCCO1 | > 100 µM (inactive) | > 100 µM (inactive) | 63.8 µM (inactive) | > 100 µM (inactive) | 54.1 µM (inactive) | 52.1 µM (inactive) | > 100 µM (inactive) | > 100 µM (inactive) | > 100 µM (inactive) | 54.1 µM (inactive) | > 100 µM (inactive) | > 100 µM (inactive) | > 100 µM (inactive) | > 100 µM (inactive) | > 100 µM (inactive) | > 100 µM (inactive) | > 100 µM (inactive) | > 100 µM (inactive) | > 100 µM (inactive) | > 100 µM (inactive) |
| CC1(C)CCCC2(C)[C@@H]1CC[C@]13C[C@](C)(CC[C@@H]21)[C@@H]3CO (stereo partly specified) | > 100 µM (inactive) | > 100 µM (inactive) | > 100 µM (inactive) | > 100 µM (inactive) | > 100 µM (inactive) | > 100 µM (inactive) | – | > 100 µM (inactive) | > 100 µM (inactive) | > 100 µM (inactive) | > 100 µM (inactive) | > 100 µM (inactive) | > 100 µM (inactive) | > 100 µM (inactive) | > 100 µM (inactive) | > 100 µM (inactive) | – | > 100 µM (inactive) | > 100 µM (inactive) | > 100 µM (inactive) |
